# Experimental data taken from patent publication US20250129102A1, “CRYSTAL FORM OF PYRIMIDINE HETEROCYCLIC COMPOUND AND PREPARATION METHOD THEREFOR” (D3 Bio (Wuxi) Co., Ltd., priority 2021, published 2025).
# Legend:
# [1] = Stability in plasma, CD-1 mice; type: in vitro ADME; conditions: CD-1 mice plasma, 2 μM, 37° C.
# Description: (§1) Stabilities of the assay compound in plasma of CD-1 mice and human were assayed, respectively. Cryopreserved plasma was thawed for 10 to 20 min. After the plasma was completely thawed, it was placed in a centrifuge and centrifuged at 3220×g for 5 min to remove any suspended matter and sediment in the plasma. 96-well incubation plates were prepared and named T0, T10, T30, T60, T120, respectively. 98 μL of blank plasmas of mouse, rat, canine, monkey and human were added to the corresponding incubation plates, then 2 μL of working solutions of the compound or the control compound were added to the corresponding plates in duplicate. All samples were incubated in a 37° C. water bath. The final incubation concentrations of the compound and the control compounds bisacodyl, enalapril maleate, procaine and probanthine were 2 μM, and the final organic phase content was 2.0%. At the end of incubation for each time point, the corresponding incubation plate was removed and 400 μL of a solution of 200 ng/mL of tolbutamide and labetalol in acetonitrile was added to each corresponding sample well to precipitate the protein. All sample plates were sealed and shaken well, and then centrifuged at 3220×g for 20 minutes. 50 μL of supernatant was taken out and diluted in 100 μL of ultrapure water. All samples were mixed well and then analyzed by LC/MS/MS.
# [2] = Protein binding rate in plasma by equilibrium dialysis, cynomolgus monkeys; type: in vitro ADME; conditions: 2 μM, equilibrium dialysis 4 hours
# Description: (§2) Protein binding rate of the assay compound in plasma of CD-1 mice, SD rats, beagle dogs, cynomolgus monkeys and human was determined by equilibrium dialysis. Plasma samples with a compound concentration of 2 μM were prepared using plasma of the above five species, placed in a 96-well equilibrium dialysis device, and dialyzed with phosphate buffer solution at 37±1° C. for 4 hours. Warfarin was used as the control compound in this assay. The concentrations of the assay compound in plasma and dialysis buffer were determined by LC-MS/MS method.
# [3] = In vitro stability in liver microsomes, beagle dogs; type: in vitro ADME; conditions: dog, 0.5 mg/mL
# Description: (§3) Metabolic stabilities of the assay compound in liver microsomes of CD-1 mice, SD rats, beagle dogs, cynomolgus monkeys, and human were assayed, respectively.
# (§4) Two 96-well incubation plates were prepared and named T60 incubation plate and NCF60 incubation plate, respectively. 445 μL of microsomal working solutions (liver microsomal protein concentration of 0.56 mg/mL) were added to the T60 incubation plate and the NCF60 incubation plate, respectively, and then the above incubation plates were pre-incubated in a 37° C. water bath for about 10 minutes.
# (§5) After the pre-incubation, 5 μL of working solutions of the assay sample or the control compound were added to the T60 incubation plate and the NCF60 incubation plate, respectively, and the mixture was mixed well. 50 μL of potassium phosphate buffer was added to each well of the NCF60 incubation plate to initiate the reaction. 180 μL of stop solution (200 ng/mL tolbutamide and 200 ng/mL labetalol in acetonitrile) and 6 uL of NADPH regeneration system working solution were added to the T0 stop plate, and 54 μL of sample was transferred from T60 incubation plate to T0 stop plate (generation of T0 sample). The reaction was initiated by adding 44 μL of NADPH regeneration system working solution to each well of the T60 incubation plate. Only 54 μL of microsome working solution, 6 uL of NADPH regeneration system working solution and 180 μL of stop solution were added to the Blank plate. Therefore, in samples of the assay compound or the control compound, the final reaction concentration of compound, testosterone, diclofenac and propafenone was 1 μM, the concentration of liver microsomes was 0.5 mg/mL, and the final reaction concentrations of DMSO and acetonitrile in the reaction system were 0.01% (v/v) and 0.99% (v/v), respectively. […] All samples were injected and analyzed by liquid chromatography-tandem mass spectrometry.
# [4] = tested on: KRAS^G12C-mutated H358 cells; assay: cells; conditions: Homo sapiens, NCI-H358, 120 h, read-out: NCI-H358 IC50
# Description: The main instrument used in this assay was a Nivo multi-label analyzer (PerkinElmer).
# The assay was carried out in duplicate. 78 μL of medium was added to the intermediate plate, and then 2 μL of the serially diluted compound was transferred to each well of the intermediate plate according to the corresponding position. After mixing well, 20 μL per well was transferred to the cell plate. […] The cell plate was incubated in a carbon dioxide incubator for 5 days. Another cell plate was prepared, and the signal value of the cell plate was read on the day of compound addition as the maximum value (Max value in the equation below) to participate in data analysis. 25 μL of cell viability chemiluminescence detection reagent was added to each well of the cell plate, and the plate was incubated at room temperature for 10 minutes to stabilize the luminescence signal. A multi-label analyzer was used for reading the plate. • 3) 25 μL of cell viability chemiluminescence detection reagent was added to each well of the cell plate, and the plate was incubated at room temperature for 10 minutes to stabilize the luminescence signal. A multi-label analyzer was used for reading the plate.
# [5] = Stability in plasma, human; type: in vitro ADME; conditions: 2 μM, 37° C.
# Description: as §1
# [6] = Protein binding rate in plasma by equilibrium dialysis, beagle dogs; type: in vitro ADME; conditions: 2 μM, equilibrium dialysis 4 hours
# Description: as §2
# [7] = In vitro stability in liver microsomes, SD rats; type: in vitro ADME; conditions: rat, 0.5 mg/mL
# Description: as §3, §4, §5
# [8] = In vitro stability in liver microsomes, human; type: in vitro ADME; conditions: 0.5 mg/mL
# Description: as §3, §4, §5
smiles,measurement,setting,value
C=C(F)C(=O)N1CCN(c2nc(OC[C@@]34CCCN3C[C@H](F)C4)nc3c2CO[C@H](c2c(F)c(N)cc(C)c2C(F)(F)F)C3)C[C@@H]1CC#N [Compound of formula (I)],Detection of assay compound content within 120 min,[1],94%
same,Protein unbound rate (%),[2],7.8%
same,CLint scaled at 1 μM,[3],< 13.8 mL/min/kg
same,half-life at 1 μM,[3],> 145 min
same,microsomal CLint at 1 μM,[3]; read-out: CLint(hep),< 9.6 µL/min/mg
same,IC50,[4],600 pM
same,Detection of assay compound content within 120 min,[5],93%
same,Protein unbound rate (%),[6],3.3%
same,CLint scaled at 1 μM,[7],108 mL/min/kg
same,half-life at 1 μM,[7],23 min
same,microsomal CLint at 1 μM,[7]; read-out: CLint(hep),60.2 µL/min/mg
same,CLint scaled at 1 μM,[8],61.1 mL/min/kg
same,half-life at 1 μM,[8],20.4 min
same,microsomal CLint at 1 μM,[8]; read-out: CLint(hep),67.9 µL/min/mg
